What was measured:
TNBC patients = conditions: high dose omeprazole added to neoadjuvant TNBC treatment; cited from earlier work
breast cancer patients = assay: Retrospective EMR analysis of overall survival of breast cancer patients; assay type: in vivo, human
db/+ and db/db mice = conditions: chronic use, cited from earlier work
[1] = target: thioesterase (TE) domain of FASN (Homo sapiens, UniProt P49327); assay: TE activity assay with recombinant TE; conditions: recombinant TE 500 nM
M3K/Sh cells = assay: Colony formation assay, MCF7/AdVp3000 cells with FASN knockdown; assay type: cell-based, human; conditions: FASN knockdown vs M3K/Scr
MCF7 cells [2] = assay: Colony formation combination with ionizing radiation, MCF7; assay type: cell-based, human; conditions: pre-treated with 10 µM once a day for 3 days
MDA-MB-468 cells [3] = assay: Colony formation combination study with doxorubicin; assay type: cell-based, human; conditions: combination with doxorubicin at potency ratios 50/50, 25/75, 75/25
MCF7/FASN cells = assay: Colony formation assay, MCF7 cells with ectopic FASN over-expression; assay type: cell-based, human; conditions: ectopic FASN over-expression vs MCF7/Vec
[4] = tested on: γ-H2AX in MDA-MB-468 cells; assay: γ-H2AX level; assay type: cell-based, human
γ-H2AX in MCF7 cells = assay: γ-H2AX level; assay type: cell-based, human
PARP1 expression = assay: Western blot analysis of PARP1 expression; assay type: cell-based, human; conditions: MCF7, T47D, MDA-MB-231 and MDA-MB-468 cells, different concentrations
[5] = tested on: NHEJ activity in MCF7 cells; assay: Host cell reactivation assay of NHEJ activity, MCF7; assay type: cell-based, human
MCF7 cells [6] = assay: Flow cytometry of apoptosis and cell cycle, MCF7; assay type: cell-based, human
[7] = tested on: NHEJ activity in MDA-MB-468 cells; assay: Host cell reactivation assay of NHEJ activity, MDA-MB-468; assay type: cell-based, human; conditions: 10 µM twice a day for three days
[8] = tested on: homologous recombination activity; assay: Host cell reactivation assay of homologous recombination activity; assay type: cell-based, human; conditions: 10 µM twice a day for three days
MDA-MB-468 cells [9] = assay: Flow cytometry of apoptosis and cell cycle, MDA-MB-468; assay type: cell-based, human
MDA-MB-468 cells [10] = assay: Colony formation combination with ionizing radiation, MDA-MB-468; assay type: cell-based, human; conditions: pre-treated with 10 µM once a day for 3 days
MCF7 cells [11] = assay: Colony formation combination study with doxorubicin; assay type: cell-based, human; conditions: combination with doxorubicin at potency ratios 50/50, 25/75, 75/25
[12] = 10–20 mg users vs non-PPI users
[13] = users of the PPI vs non-PPI users
[14] = esomeprazole users vs omeprazole users, pairwise comparison

thioesterase (TE) domain of FASN, sequence (P49327 2207-2511 limits assumed): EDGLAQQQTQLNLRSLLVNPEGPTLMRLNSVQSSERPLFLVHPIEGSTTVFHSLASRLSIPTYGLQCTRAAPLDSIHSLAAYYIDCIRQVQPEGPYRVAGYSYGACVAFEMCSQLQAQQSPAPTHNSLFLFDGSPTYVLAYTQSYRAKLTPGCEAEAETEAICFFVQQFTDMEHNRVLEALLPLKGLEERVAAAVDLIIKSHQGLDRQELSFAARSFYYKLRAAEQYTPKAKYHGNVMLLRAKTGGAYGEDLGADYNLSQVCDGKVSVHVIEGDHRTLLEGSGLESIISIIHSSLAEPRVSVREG

**Q.** With `COc1ccc2[nH]c([S+]([O-])Cc3ncc(C)c(OC)c3C)nc2c1` (centres unmarked) [omeprazole] as the molecule, how does the “FASN activities in tumors” value (TNBC patients) read?
**A.** inhibited

**Q.** What about the Toxicity (TNBC patients) of the same molecule?
**A.** without adding toxicity

**Q.** What about the pCR rate (TNBC patients) of the same molecule?
**A.** ~ 74%

**Q.** And the “Overall survival, multivariant HR” value (breast cancer patients; 40 mg users vs non-PPI users)?
**A.** 0.12

**Q.** What about the “Overall survival, univariant HR” value (breast cancer patients; 40 mg users vs non-PPI users) of the same molecule?
**A.** 0.21

**Q.** And the “Overall survival, multivariant HR” value (breast cancer patients; [12])?
**A.** 0.28

**Q.** What about the “Overall survival, univariant HR” value (breast cancer patients; [12]) of the same molecule?
**A.** 0.33

**Q.** And the “Overall survival, univariate HR” value (breast cancer patients; [13])?
**A.** 0.33

**Q.** For `CC12C[C@@]34C=CC(=O)[C@@](C)(CCC(=O)Nc5c(O)ccc(C(=O)O)c5O)C3[C@H](CC1C4)O2` (some centres unmarked) [platensimycin], which Insulin sensitivity (db/+ and db/db mice; db/+ mice fed with high-fructose diet) is on record?
**A.** improved insulin sensitivity

**Q.** What about the Ambient glucose levels (db/+ and db/db mice; db/db mice) of the same molecule?
**A.** reduced ambient glucose levels

**Q.** For `COc1ccnc(C[S+]([O-])c2nc3ccc(OC(F)F)cc3[nH]2)c1OC` (centres unmarked) [pantoprazole], which “Overall survival, univariate HR” value (breast cancer patients; [13]) is on record?
**A.** 0.43

**Q.** Which “Inhibition of TE activity of FASN (Ki), enantiomer comparison” value [1] does the source give for `Cc1c(OCC(F)(F)F)ccnc1C[S@@+]([O-])c1nc2ccccc2[nH]1` [R-lansoprazole, dexlansoprazole] here?
**A.** significantly more effective than the S-lansoprazole

**Q.** With `COc1ccc2nc([S@@+]([O-])Cc3ncc(C)c(OC)c3C)[nH]c2c1` [esomeprazole] as the molecule, how does the “Overall survival, multivariant HR” value (breast cancer patients; 20 mg users vs non-PPI users) read?
**A.** 0.73

**Q.** What about the “Overall survival, univariant HR” value (breast cancer patients; 20 mg users vs non-PPI users) of the same molecule?
**A.** 1.0

**Q.** And the “Overall survival, multivariant HR” value (breast cancer patients; 40 mg users vs non-PPI users)?
**A.** 0.33

**Q.** And the “Overall survival, univariant HR” value (breast cancer patients; 40 mg users vs non-PPI users)?
**A.** 0.3

**Q.** What about the “Overall survival, multivariate HR” value (breast cancer patients; [14]) of the same molecule?
**A.** 1.64

**Q.** And the “Overall survival, univariate HR” value (breast cancer patients; [14])?
**A.** 1.62

**Q.** What about the “Overall survival, univariate HR” value (breast cancer patients; [13]) of the same molecule?
**A.** 0.52

**Q.** Which “Lansoprazole resistance (relative resistance factor)” value (M3K/Sh cells) does the source give for `Cc1c(OCC(F)(F)F)ccnc1C[S+]([O-])c1nc2ccccc2[nH]1` (centres unmarked) [lansoprazole] here?
**A.** reduced

**Q.** And the “Sensitization to IR treatment” value (MCF7 cells [2])?
**A.** sensitized

**Q.** What about the Combination index (MDA-MB-468 cells [3]) of the same molecule?
**A.** < 1.0

**Q.** And the “Lansoprazole resistance (relative resistance factor)” value (MCF7/FASN cells)?
**A.** increased

**Q.** What about the γ-H2AX level ([4]; MDA-MB-468, lansoprazole alone) of the same molecule?
**A.** increased γ-H2AX level in a dose-dependent manner

**Q.** What about the “γ-H2AX level at 4 hrs post-IR versus 1 hr” value ([4]; MDA-MB-468, lansoprazole pre-treatment, 5 Gy IR) of the same molecule?
**A.** no reduction

**Q.** And the “Doxorubicin-induced γ-H2AX production” value ([4]; MDA-MB-468, lansoprazole with doxorubicin)?
**A.** synergistically increased

**Q.** And the “Overall survival, univariate HR” value (breast cancer patients; [13])?
**A.** 0.20

**Q.** What about the γ-H2AX level (γ-H2AX in MCF7 cells; MCF7, lansoprazole alone) of the same molecule?
**A.** increased γ-H2AX level in a dose-dependent manner

**Q.** And the “γ-H2AX level at 4 hrs post-IR versus 1 hr” value (γ-H2AX in MCF7 cells; MCF7, lansoprazole pre-treatment, 5 Gy IR)?
**A.** no reduction

**Q.** And the “Doxorubicin-induced γ-H2AX production” value (γ-H2AX in MCF7 cells; MCF7, lansoprazole with doxorubicin)?
**A.** synergistically increased

**Q.** What about the “Lansoprazole-induced γ-H2AX increase with ectopic FASN over-expression” value (γ-H2AX in MCF7 cells; over-expressing ectopic FASN) of the same molecule?
**A.** ablated

**Q.** And the PARP1 expression (PARP1 expression)?
**A.** dose-dependently reduced

**Q.** What about the NHEJ activity ([5]; MCF7, 10 µM twice a day for three days) of the same molecule?
**A.** significantly reduced

**Q.** And the “NHEJ activity with ectopic FASN over-expression” value ([5]; MCF7 cells over-expressing ectopic FASN)?
**A.** rescued NHEJ activity

**Q.** And the Apoptosis (MCF7 cells [6])?
**A.** dose-dependently induced apoptosis

**Q.** And the NHEJ activity [7]?
**A.** significantly reduced

**Q.** What about the Homologous recombination activity [8] of the same molecule?
**A.** did not change

**Q.** And the Apoptosis (MDA-MB-468 cells [9]; MDA-MB-468)?
**A.** dose-dependently induced apoptosis

**Q.** And the “Cell cycle arrest phase” value (MDA-MB-468 cells [9]; MDA-MB-468, dose-dependent)?
**A.** S phase

**Q.** And the “Sensitization to IR treatment” value (MDA-MB-468 cells [10])?
**A.** sensitized

**Q.** And the Combination index (MCF7 cells [11])?
**A.** < 1.0
